Assay results: patent US20260138958A1, “SUBSTITUTED N-PHENYLURACILS AND SALTS THEREOF, AND USE THEREOF AS HERBICIDAL ACTIVE SUBSTANCES” (Bayer Aktiengesellschaft, priority 2022, published 2026)

Tests used:
Type in all cases: in vivo
[1] = tested on: Polygonum convolvulus (POLCO); assay: Post-emergence herbicidal action, greenhouse pot test; conditions: Fallopia convolvulus, 504 h
Experimental: (§1) Seeds of monocotyledonous and dicotyledonous weeds and crop plants were placed in sandy loam in plastic or wood-fibre pots, covered with soil and cultivated in a greenhouse under controlled growth conditions. 2 to 3 weeks after sowing, the test plants were treated at the one-leaf stage. The compounds of the invention, formulated in the form of wettable powders (WP) or as emulsion concentrates (EC), were then sprayed onto the green parts of the plants as aqueous suspension or emulsion with addition of 0.5% additive at a water application rate of 600 l/ha (converted). After the test plants had been kept in the greenhouse under optimum growth conditions for about 3 weeks, the activity of the preparations was rated visually in comparison to untreated controls. For example, 100% activity=the plants have died, 0% activity=like control plants.

[2] = tested on: Viola tricolor (VIOTR); assay: as above
Experimental: as §1

[3] = tested on: Amaranthus retroflexus (AMARE); assay: as above; conditions: Amaranthus retroflexus, 504 h
Experimental: as §1

[4] = tested on: Alopecurus myosuroides (ALOMY); assay: as above; conditions: Alopecurus myosuroides, 504 h, 20 g/ha, read-out: Post-emergence effect at 20 g/ha against ALOMY in %
Experimental: as §1

[5] = tested on: Lolium rigidum (LOLRI); assay: as above
Experimental: as §1

[6] = tested on: Tripleurospermum inodorum (MATIN); assay: as above; conditions: Tripleurospermum inodorum, 504 h, 20 g/ha, read-out: Post-emergence effect at 20 g/ha against MATIN in %
Experimental: as §1

[7] = tested on: Bassia scoparia (KCHSC); assay: as above
Experimental: as §1

[8] = tested on: Pharbitis purpurea (PHBPU); assay: as above; conditions: Ipomoea purpurea, 504 h
Experimental: as §1

[9] = tested on: Echinochloa crus-galli (ECHCG); assay: as above
Experimental: as §1

[10] = tested on: Setaria viridis (SETVI); assay: as above
Experimental: as §1

[11] = tested on: Veronica persica (VERPE); assay: as above
Experimental: as §1

[12] = tested on: Digitaria sanguinalis (DIGSA); assay: as above
Experimental: as §1

[13] = tested on: Abutilon theophrasti (ABUTH); assay: as above
Experimental: as §1

[14] = tested on: Triticum aestivum (TRZAS); assay: Post-emergence crop plant compatibility, greenhouse pot test; conditions: Triticum aestivum, in vivo
Experimental: as §1
The observed effects on selected crop plants are reported here in comparison to the untreated controls (values in %).

CC(OC(=O)COc1ccccc1Oc1cc(-n2c(=O)cc(C(F)(F)F)n(C)c2=O)c(F)cc1Cl)C1CC1 (stereo not drawn) [I.7-2, 1-Cyclopropylethyl (2-{2-chloro-4-fluoro-5-[3-methyl-2,6-dioxo-4-(trifluoromethyl)-3,6-dihydropyrimidin-1(2H)-yl]phenoxy}phenoxy)acetate]
80%: pest or weed control at 20 g/ha [4] | Post-emergence effect at 1.25 g/ha against ABUTH in % ([13]; 1.25 g/ha)
100%: pest or weed control at 5 g/ha ([1]; 5 g/ha, read-out: Post-emergence effect at 5 g/ha against POLCO in %) | pest or weed control at 20 g/ha ([1]; 20 g/ha, read-out: Post-emergence effect at 20 g/ha against POLCO in %) | Post-emergence effect at 1.25 g/ha against VIOTR in % ([2]; 1.25 g/ha) | Post-emergence effect at 5 g/ha against VIOTR in % ([2]; 5 g/ha) | pest or weed control at 20 g/ha ([2]; Viola tricolor, 504 h, 20 g/ha, read-out: Post-emergence effect at 20 g/ha against VIOTR in %) | pest or weed control at 1.25 g/ha ([3]; 1.25 g/ha, read-out: Post-emergence effect at 1.25 g/ha against AMARE in %) | pest or weed control at 5 g/ha ([3]; 5 g/ha, read-out: Post-emergence effect at 5 g/ha against AMARE in %) | pest or weed control at 20 g/ha ([3]; 20 g/ha, read-out: Post-emergence effect at 20 g/ha against AMARE in %) | Post-emergence effect at 20 g/ha against LOLRI in % [5] | pest or weed control at 20 g/ha [6] | Post-emergence effect at 1.25 g/ha against KCHSC in % ([7]; 1.25 g/ha) | Post-emergence effect at 5 g/ha against KCHSC in % ([7]; 5 g/ha) | Post-emergence effect at 20 g/ha against KCHSC in % ([7]; 20 g/ha) | pest or weed control at 5 g/ha ([8]; 5 g/ha, read-out: Post-emergence effect at 5 g/ha against PHBPU in %) | pest or weed control at 20 g/ha ([8]; 20 g/ha, read-out: Post-emergence effect at 20 g/ha against PHBPU in %) | Post-emergence effect at 5 g/ha against ECHCG in % ([9]; 5 g/ha) | pest or weed control at 20 g/ha ([9]; Echinochloa crus-galli, 504 h, 20 g/ha, read-out: Post-emergence effect at 20 g/ha against ECHCG in %) | Post-emergence effect at 1.25 g/ha against SETVI in % ([10]; 1.25 g/ha) | pest or weed control at 5 g/ha ([10]; Setaria viridis, 504 h, 5 g/ha, read-out: Post-emergence effect at 5 g/ha against SETVI in %) | pest or weed control at 20 g/ha ([10]; Setaria viridis, 504 h, 20 g/ha, read-out: Post-emergence effect at 20 g/ha against SETVI in %) | Post-emergence effect at 1.25 g/ha against VERPE in % ([11]; 1.25 g/ha) | pest or weed control at 5 g/ha ([11]; Veronica persica, 504 h, 5 g/ha, read-out: Post-emergence effect at 5 g/ha against VERPE in %) | pest or weed control at 20 g/ha ([11]; Veronica persica, 504 h, 20 g/ha, read-out: Post-emergence effect at 20 g/ha against VERPE in %) | Post-emergence effect at 1.25 g/ha against DIGSA in % ([12]; 1.25 g/ha) | Post-emergence effect at 5 g/ha against DIGSA in % ([12]; 5 g/ha) | Post-emergence effect at 20 g/ha against DIGSA in % ([12]; 20 g/ha) | pest or weed control at 5 g/ha ([13]; Abutilon theophrasti, 504 h, 5 g/ha, read-out: Post-emergence effect at 5 g/ha against ABUTH in %) | pest or weed control at 20 g/ha ([13]; Abutilon theophrasti, 504 h, 20 g/ha, read-out: Post-emergence effect at 20 g/ha against ABUTH in %)
10%: Post-emergence effect at 1.25 g/ha against TRZAS in % [14]

Cn1c(C(F)(F)F)cc(=O)n(-c2cc(Oc3ccccc3OCC(=O)OC3CCCCCC3)c(Cl)cc2F)c1=O [reference compound]
80%: ECHCG (efficacy in %) ([9]; Table B5 comparison, application rate 1.25 g/ha)

Cn1c(C(F)(F)F)cc(=O)n(-c2cc(Oc3ccccc3OCC(=O)OC3CCCCC3)c(Cl)cc2F)c1=O [a-29, reference compound]
90%: VERPE (efficacy in %) ([11]; Table B4 comparison, application rate 1.25 g/ha)
